These results are taken from patent US11312712B2, “Azabenzimidazoles and their use as AMPA receptor modulators” (Janssen Pharmaceutica NV, priority 2015, dated 2022).

For this assay, the target named is GluA1o-γ8 (GRIA1o-CACNG8 fusion construct) (Homo sapiens (Human), UniProt P42261+Q8WXS5). Nature of the assay: Calcium flux assay (FLIPR), inhibition of TARP γ8 dependent AMPA receptor activity. It is filed as cell-based. The conditions noted are these: GluA1o-γ8 (GRIA1o-CACNG8 fusion) in HEK293 cells, calcium flux after 15 μM glutamate. The method in brief: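 HEK293 cells stably expressing a 1:1 GRIA1o–CACNG8 fusion were loaded with Calcium-5/6 dye plus compound in pH 7.4 HEPES-buffered saline. FLIPR calcium flux after 15 μM glutamate was normalized to untreated and 10 μM CP465022 controls, and a four-parameter logistic fit gave pIC50.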
A general note: A change in cytosolic calcium serves as a functional read-out for many receptors and channels.

GluA1o-γ8 (GRIA1o-CACNG8 fusion construct), sequence (P42261 other isoform, or with tags, fused parts or gaps): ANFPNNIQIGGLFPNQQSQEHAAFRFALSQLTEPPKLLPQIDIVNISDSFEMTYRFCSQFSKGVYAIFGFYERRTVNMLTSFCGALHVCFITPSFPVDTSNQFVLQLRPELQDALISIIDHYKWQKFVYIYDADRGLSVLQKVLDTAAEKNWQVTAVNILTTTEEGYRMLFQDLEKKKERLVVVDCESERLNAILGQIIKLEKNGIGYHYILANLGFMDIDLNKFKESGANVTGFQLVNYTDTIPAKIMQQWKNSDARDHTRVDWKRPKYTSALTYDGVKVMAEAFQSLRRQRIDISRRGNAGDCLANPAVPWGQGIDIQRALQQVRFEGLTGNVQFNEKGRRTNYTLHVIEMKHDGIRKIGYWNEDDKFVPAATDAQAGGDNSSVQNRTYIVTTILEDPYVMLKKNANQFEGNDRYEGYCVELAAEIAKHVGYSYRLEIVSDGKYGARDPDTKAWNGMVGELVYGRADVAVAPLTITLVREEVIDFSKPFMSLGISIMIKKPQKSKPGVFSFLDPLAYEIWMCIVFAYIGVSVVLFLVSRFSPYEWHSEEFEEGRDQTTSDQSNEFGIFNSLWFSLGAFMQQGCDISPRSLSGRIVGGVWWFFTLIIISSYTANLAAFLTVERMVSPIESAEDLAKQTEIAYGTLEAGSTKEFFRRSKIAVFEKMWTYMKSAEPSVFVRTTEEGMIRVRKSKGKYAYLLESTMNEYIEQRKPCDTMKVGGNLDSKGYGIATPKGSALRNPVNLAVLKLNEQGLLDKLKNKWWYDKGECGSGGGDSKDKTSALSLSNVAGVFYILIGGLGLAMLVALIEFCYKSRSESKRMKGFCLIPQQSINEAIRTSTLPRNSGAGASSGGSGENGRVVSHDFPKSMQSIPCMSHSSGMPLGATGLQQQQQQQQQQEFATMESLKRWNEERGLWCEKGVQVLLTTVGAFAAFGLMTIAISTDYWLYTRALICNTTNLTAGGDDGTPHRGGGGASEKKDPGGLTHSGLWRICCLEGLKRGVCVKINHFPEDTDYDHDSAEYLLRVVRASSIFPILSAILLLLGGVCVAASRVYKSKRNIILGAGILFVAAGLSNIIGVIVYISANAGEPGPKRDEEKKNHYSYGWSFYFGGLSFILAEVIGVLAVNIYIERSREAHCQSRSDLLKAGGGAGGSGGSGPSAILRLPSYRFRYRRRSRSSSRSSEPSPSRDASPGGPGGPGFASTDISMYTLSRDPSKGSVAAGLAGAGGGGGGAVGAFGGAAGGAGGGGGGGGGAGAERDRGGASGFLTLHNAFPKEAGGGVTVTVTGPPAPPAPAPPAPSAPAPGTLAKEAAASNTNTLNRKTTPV

Regarding `Cc1cc(-n2cnc3ccc(C(F)(F)F)nc32)cc2cn[nH]c12` [Example 194, 3-(7-Methyl-1H-indazol-5-yl)-5-(trifluoromethyl)imidazo[4,5-b]pyridine], the concentration for half-maximal inhibition (IC50) was 20 nM.
With `Cc1cc(-n2c(-c3ccc(F)cc3)nc3ccc(C(F)(F)F)nc32)cc2cn[nH]c12` [Example 195, 2-(4-Fluorophenyl)-3-(7-methyl-1H-indazol-5-yl)-5-(trifluoromethyl)imidazo[4,5-b]pyridine] the figure was 0.0126 nM; with `CCOc1nc2ccc(C(F)(F)F)nc2n1-c1ccc2[nH]nc(F)c2c1` [Example 196, 2-Ethoxy-3-(3-fluoro-1H-indazol-5-yl)-5-(trifluoromethyl)imidazo[4,5-b]pyridine], 25.1 nM.
As for `Fc1n[nH]c2ccc(-n3c(C4CC4)nc4ccc(C(F)(F)F)nc43)cc12` [Example 197, 2-Cyclopropyl-3-(3-fluoro-1H-indazol-5-yl)-5-(trifluoromethyl)imidazo[4,5-b]pyridine], the figure is 6.31 nM.
`Cc1cc(-n2c(C(C)C)nc3ccc(C(F)(F)F)nc32)cc2cn[nH]c12` [Example 198, 2-Isopropyl-3-(7-methyl-1H-indazol-5-yl)-5-(trifluoromethyl)imidazo[4,5-b]pyridine]: the half-maximal inhibitory concentration (IC50) was 0.0316 nM.
With `FC(F)(F)c1nc2cccnc2n1-c1cc(Cl)c2[nH]ncc2c1` [Example 199, 3-(7-Chloro-1H-indazol-5-yl)-2-(trifluoromethyl)imidazo[4,5-b]pyridine] the figure was 2 nM; with `CC(C)c1nc2cccnc2n1-c1cc(Cl)c2[nH]ncc2c1` [Example 200, 3-(7-Chloro-1H-indazol-5-yl)-2-isopropyl-imidazo[4,5-b]pyridine], 6.31 nM; with `Cc1ccnc2c1nc(C(F)(F)F)n2-c1ccc2[nH]ncc2c1` [Example 201, 3-(1H-indazol-5-yl)-7-methyl-2-(trifluoromethyl)imidazo[4,5-b]pyridine], 100 nM.
With `Cc1ccnc2c1nc(C(F)(F)F)n2-c1cc(Cl)c2[nH]ncc2c1` [Example 202, 3-(7-Chloro-1H-indazol-5-yl)-7-methyl-2-(trifluoromethyl)imidazo[4,5-b]pyridine] the figure was 0.631 nM.
With `Cc1ccnc2c1nc(C(F)(F)F)n2-c1cc(C)c2[nH]ncc2c1` [Example 203, 7-Methyl-3-(7-methyl-1H-indazol-5-yl)-2-(trifluoromethyl)imidazo[4,5-b]pyridine] the figure was 5.01 nM.
As to `FC(F)(F)c1ccc2nc(C(F)(F)F)n(-c3cnc4[nH]ncc4c3)c2n1` [Example 204, 3-(1H-pyrazolo[3,4-b]pyridin-5-yl)-2,5-bis(trifluoromethyl)imidazo[4,5-b]pyridine], the IC50 was 12.6 nM.
For `[O-][n+]1cc(-n2c(C(F)(F)F)nc3ccc(C(F)(F)F)nc32)cc2cn[nH]c21` [Example 205, 3-(7-Oxido-1H-pyrazolo[3,4-b]pyridin-7-ium-5-yl)-2,5-bis(trifluoromethyl)imidazo[4,5-b]pyridine], the IC50 is 398 nM.
`O=c1[nH]c2ccc(-n3c(C(F)(F)F)nc4ccc(C(F)F)nc43)cc2s1` [Example 206, 6-[5-(difluoromethyl)-2-(trifluoromethyl)imidazo[4,5-b]pyridin-3-yl]-3H-1,3-benzothiazol-2-one]: the IC50 was 0.316 nM.
As for `FC(F)c1ccc2nc(C(F)F)n(-c3cc(Cl)c4[nH]ncc4c3)c2n1` [Example 207, 3-(7-Chloro-1H-indazol-5-yl)-2,5-bis(difluoromethyl)imidazo[4,5-b]pyridine], the figure is 0.0631 nM; as for `FC(F)(F)c1nc2ccc(C3CCC3)nc2n1-c1ccc2[nH]ncc2c1` [Example 208, 5-Cyclobutyl-3-(1H-indazol-5-yl)-2-(trifluoromethyl)imidazo[4,5-b]pyridine], 0.158 nM.
With `CC(C)c1nc2ccc(C(F)F)nc2n1-c1ccc2[nH]ncc2c1` [Example 210, 5-(Difluoromethyl)-3-(1H-indazol-5-yl)-2-isopropyl-imidazo[4,5-b]pyridine] the figure was 0.631 nM.
With `CC(C)c1nc2ccc(C(C)(F)F)nc2n1-c1ccc2[nH]ncc2c1` [Example 211, 5-(1,1-Difluoroethyl)-3-(1H-indazol-5-yl)-2-isopropyl-imidazo[4,5-b]pyridine] the figure was 5.01 nM.
Regarding `Cc1cc(-n2c(C(F)F)nc3ccc(C(F)F)nc32)cc2cn[nH]c12` [Example 212, 2,5-Bis(difluoromethyl)-3-(7-methyl-1H-indazol-5-yl)imidazo[4,5-b]pyridine], the concentration for half-maximal inhibition (IC50) is 0.0794 nM.
With `Cc1ccc2nc(-c3ccnc(F)c3)n(-c3cc(C)c4[nH]ncc4c3)c2n1` [Example 213, 2-(2-Fluoro-4-pyridyl)-5-methyl-3-(7-methyl-1H-indazol-5-yl)imidazo[4,5-b]pyridine] the figure was 0.501 nM.
On to `Cc1cc(-n2c(C(C)C)nc3c(N(C)CCF)cc(C(F)(F)F)nc32)cc2cn[nH]c12` [Example 214, N-(2-Fluoroethyl)-2-isopropyl-N-methyl-3-(7-methyl-1H-indazol-5-yl)-5-(trifluoromethyl)imidazo[4,5-b]pyridin-7-amine], for which the 50% inhibitory concentration (IC50) is 0.158 nM.
With `O=C1Nc2ccc(-n3c(-c4ccnc(F)c4)nc4ccc(C(F)(F)F)nc43)cc2C1=O` [Example 215, 5-[2-(2-Fluoro-4-pyridyl)-5-(trifluoromethyl)imidazo[4,5-b]pyridin-3-yl]indoline-2,3-dione] the figure was 1580 nM; with `Cc1cc(-n2c(-c3ccnc(F)c3)nc3ccc(C(F)(F)F)nc32)cc2cn[nH]c12` [Example 217, 2-(2-Fluoro-4-pyridyl)-3-(7-methyl-1H-indazol-5-yl)-5-(trifluoromethyl)imidazo[4,5-b]pyridine], 0.0501 nM; with `FCCOc1cc(C(F)(F)F)nc2c1nc(C(F)(F)F)n2-c1cc(Cl)c2[nH]ncc2c1` [Example 218, 3-(7-Chloro-1H-indazol-5-yl)-7-(2-fluoroethoxy)-2,5-bis(trifluoromethyl)imidazo[4,5-b]pyridine], 0.0501 nM.
As for `OC/C=C/c1cc(-n2c(C(F)(F)F)nc3ccc(C(F)(F)F)nc32)cc2cn[nH]c12` [Example 219, (E)-3-(5-(2,5-Bis(trifluoromethyl)-3H-imidazo[4,5-b]pyridin-3-yl)-1H-indazol-7-yl)prop-2-en-1-ol], the figure is 15.8 nM.
With `OCCCc1cc(-n2c(C(F)(F)F)nc3ccc(C(F)(F)F)nc32)cc2cn[nH]c12` [Example 220, 3-(5-(2,5-Bis(trifluoromethyl)-3H-imidazo[4,5-b]pyridin-3-yl)-1H-indazol-7-yl)propan-1-ol] the figure was 158 nM; with `CCCc1cc(-n2c(C(F)(F)F)nc3ccc(C(F)(F)F)nc32)cc2cn[nH]c12` [Example 221, 3-(7-Propyl-1H-indazol-5-yl)-2,5-bis(trifluoromethyl)-3H-imidazo[4,5-b]pyridine], 0.126 nM; with `Cc1cc(-n2c(C(F)(F)F)nc3ccc(/C=C/CO)nc32)cc2cn[nH]c12` [Example 222, (E)-3-(3-(7-Methyl-1H-indazol-5-yl)-2-(trifluoromethyl)-3H-imidazo[4,5-b]pyridin-5-yl)prop-2-en-1-ol], 31.6 nM.
`Cc1cc(-n2c(C(F)(F)F)nc3ccc(CCCO)nc32)cc2cn[nH]c12` [Example 223, 3-(3-(7-Methyl-1H-indazol-5-yl)-2-(trifluoromethyl)-3H-imidazo[4,5-b]pyridin-5-yl)propan-1-ol]: the IC50 was 100 nM.
As to `CCCc1ccc2nc(C(F)(F)F)n(-c3cc(C)c4[nH]ncc4c3)c2n1` [Example 224, 3-(7-Methyl-1H-indazol-5-yl)-5-propyl-2-(trifluoromethyl)-3H-imidazo[4,5-b]pyridine], the 50% inhibitory concentration (IC50) was 0.158 nM.
As for `Oc1cc(-c2nc3ccc(C(F)(F)F)nc3n2-c2ccc3[nH]ncc3c2)ccn1` [Example 225, 4-[3-(1H-Indazol-5-yl)-5-(trifluoromethyl)imidazo[4,5-b]pyridin-2-yl]pyridin-2-ol], the figure is 251 nM; as for `FC(F)(F)c1ccc2ncn(-c3ccc4[nH]ncc4c3)c2n1` [Example 226, 3-(1H-Indazol-5-yl)-5-(trifluoromethyl)imidazo[4,5-b]pyridine], 398 nM.
As for `FC(F)c1ccc2nc(C3CC3)n(-c3cc(Cl)c4[nH]ncc4c3)c2n1` [Example 227, 3-(7-Chloro-1H-indazol-5-yl)-2-cyclopropyl-5-(difluoromethyl)imidazo[4,5-b]pyridine], the figure is 0.0501 nM; as for `Cc1cc(-n2c(-c3ccc(F)cc3)nc3ccc(C(F)F)nc32)cc2cn[nH]c12` [Example 228, 5-(Difluoromethyl)-2-(4-fluorophenyl)-3-(7-methyl-1H-indazol-5-yl)imidazo[4,5-b]pyridine], 0.0158 nM.
As for `Fc1ccc(-c2nc3ccc(C(F)F)nc3n2-c2cc(Cl)c3[nH]ncc3c2)cc1` [Example 229, 3-(7-Chloro-1H-indazol-5-yl)-5-(difluoromethyl)-2-(4-fluorophenyl)imidazo[4,5-b]pyridine], the figure is 0.00631 nM; as for `O=c1[nH]c2ccc(-n3c(C(F)(F)F)nc4c(N5CCOCC5)cc(C(F)(F)F)nc43)cc2s1` [Example 230, 6-[7-Morpholino-2,5-bis(trifluoromethyl)imidazo[4,5-b]pyridin-3-yl]-3H-1,3-benzothiazol-2-one], 1 nM.
As for `FC(F)(F)c1cc(N2CCOCC2)c2nc(C(F)(F)F)n(-c3ccc4[nH]ncc4c3)c2n1` [Example 231, 4-[3-(1H-Indazol-5-yl)-2,5-bis(trifluoromethyl)imidazo[4,5-b]pyridin-7-yl]morpholine], the IC50 is 3.98 nM.
As for `CCC(F)(F)c1nc2ccc(C(F)(F)F)nc2n1-c1ccc2[nH]ncc2c1` [Example 232, 2-(1,1-Difluoropropyl)-3-(1H-indazol-5-yl)-5-(trifluoromethyl)imidazo[4,5-b]pyridine], the figure is 15.8 nM.

What is called IC50 is the concentration that inhibits the measured activity by half.
